Laboratory results: patent publication US7329657B2, “Indazolyl-substituted pyrroline compounds as kinase inhibitors” (Ortho-McNeil Pharmaceutical, Inc., priority 2000, dated 2008)

Experiments:
Type in all cases: biochemical
[1] = molecular target: T1, recombinant rabbit GSK-3β protein (Oryctolagus cuniculus, UniProt G1T8E2); test: Glycogen Synthase Kinase-3 Assay; details: PPI-2 substrate, 33P-ATP, 90 minutes at 30° C.
T1 construct: purchased New England Biolabs
Procedure: Compounds were tested for the ability to inhibit recombinant rabbit GSK-3β protein using the following protocol. The test compound was added to a reaction mixture containing Protein phosphatase inhibitor-2 (PPI-2) (Calbiochem) (45 ng), rabbit GSK-3β protein (New England Biolabs) (0.75 units) and ^33P-ATP (1 μCi) in 50 mM Tris-HCl (pH 8.0), 10 mM MgCl2, 0.1% BSA, 1 mM DTT and 100 μM Sodium Vanadate. The mixture was reacted for 90 minutes at 30° C. to allow phosphorylation of the PPI-2 protein and then the protein in the reaction was precipitated using 10% TCA. The precipitated protein was collected on filter plates (MultiScreen-DV/Millipore), which were subsequently washed. Finally, the radioactivity was quantified using a TopCount Scintillation Counter (Packard).

[2] = molecular target: PKC β-II (Homo sapiens, UniProt P05771); test: Protein Kinase C Histone-Based Assay, β-II isoform; details: histone III substrate, 30 μM ATP, 10 min at 30° C.; read-out: PKC Activity (IC50 μM, Histone Based Assay) Beta II
Chain of PKC β-II (P05771 1-673 isoform P05771-2): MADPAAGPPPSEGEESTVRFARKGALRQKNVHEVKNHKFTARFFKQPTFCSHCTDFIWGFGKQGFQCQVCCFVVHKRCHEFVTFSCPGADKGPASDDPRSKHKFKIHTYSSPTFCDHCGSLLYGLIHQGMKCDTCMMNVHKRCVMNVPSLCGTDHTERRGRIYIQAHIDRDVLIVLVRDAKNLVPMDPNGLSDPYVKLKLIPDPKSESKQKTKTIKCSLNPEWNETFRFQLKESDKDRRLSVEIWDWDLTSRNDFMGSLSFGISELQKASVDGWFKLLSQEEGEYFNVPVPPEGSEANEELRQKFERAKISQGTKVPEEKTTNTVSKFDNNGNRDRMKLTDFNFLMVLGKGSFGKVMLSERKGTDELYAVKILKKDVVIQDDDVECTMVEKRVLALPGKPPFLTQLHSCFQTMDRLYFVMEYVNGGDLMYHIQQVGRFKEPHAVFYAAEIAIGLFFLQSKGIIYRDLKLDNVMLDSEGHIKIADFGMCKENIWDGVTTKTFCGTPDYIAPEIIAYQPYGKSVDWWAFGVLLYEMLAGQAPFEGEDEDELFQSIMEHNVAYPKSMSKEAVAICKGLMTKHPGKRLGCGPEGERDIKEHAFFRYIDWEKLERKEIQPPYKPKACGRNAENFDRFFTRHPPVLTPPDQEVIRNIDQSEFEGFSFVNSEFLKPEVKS
Procedure: (§1) Compounds were evaluated for PKC selectivity using histone III as the substrate. […] The reaction was incubated for 10 min at 30° C. Reactions were terminated by TCA precipitation and spotting on Whatman P81 filters. Filters were washed in 75 mM phosphoric acid and the radioactivity quantified by liquid scintillation counting.

[3] = molecular target: PKC α (Homo sapiens, UniProt P17252); test: Protein Kinase C Histone-Based Assay, α isoform; details: histone III substrate, 30 μM ATP, 10 min at 30° C.; read-out: PKC Activity (IC50 μM, Histone Based Assay) Alpha
Procedure: as §1

[4] = molecular target: PKC γ (Homo sapiens, UniProt P05129); test: Protein Kinase C Histone-Based Assay, γ isoform; details: histone III substrate, 30 μM ATP, 10 min at 30° C.; read-out: PKC Activity (IC50 μM, Histone Based Assay) Gamma
Procedure: as §1

T1 sequence (G1T8E2 1-432): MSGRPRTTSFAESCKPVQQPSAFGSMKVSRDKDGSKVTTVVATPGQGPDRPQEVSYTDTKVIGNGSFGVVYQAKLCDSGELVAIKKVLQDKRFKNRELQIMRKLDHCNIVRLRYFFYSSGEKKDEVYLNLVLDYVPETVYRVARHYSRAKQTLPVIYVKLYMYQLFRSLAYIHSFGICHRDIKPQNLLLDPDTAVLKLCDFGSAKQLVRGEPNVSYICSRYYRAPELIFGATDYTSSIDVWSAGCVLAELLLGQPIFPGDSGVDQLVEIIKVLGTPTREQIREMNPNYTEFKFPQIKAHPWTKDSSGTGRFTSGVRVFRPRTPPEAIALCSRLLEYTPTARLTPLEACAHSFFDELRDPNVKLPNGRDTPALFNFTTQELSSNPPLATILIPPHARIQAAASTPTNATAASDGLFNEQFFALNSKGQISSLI

Row | Compound | IC50 [1] [µM] | IC50 [2] [µM] | IC50 [3] [µM] | IC50 [4] [µM]
1 | C=Cn1cc(C2=C(c3nn(CC(O)CN(C)C)c4ccc(Cl)cc34)C(=O)NC2=O)c2ccccc21 (stereo not shown) [Compound 4, 3-[5-chloro-1-[3-(dimethylamino)-2-hydroxypropyl]-1H-indazol-3-yl]-4-(1-ethenyl-1H-indol-3-yl)-1H-pyrrole-2,5-dione] | 0.27 | – | – | –
2 | O=C1NC(=O)C(c2nn(CCC3OCCO3)c3ccccc23)=C1c1cn(-c2cnc3ccccc3c2)c2ccccc12 [Compound 24, 3-[1-[2-(1,3-dioxolan-2-yl)ethyl]-1H-indazol-3-yl]-4-[1-(3-quinolinyl)-1H-indol-3-yl]-1H-pyrrole-2,5-dione] | – | 0.029 | 0.2 | 1.29
3 | CN(C)CCCn1nc(C2=C(c3cn(-c4cccs4)c4ccc(Cl)cc34)C(=O)NC2=O)c2ccccc21 [Compound 33, 3-[5-chloro-1-(2-thienyl)-1H-indol-3-yl]-4-[1-[3-(dimethylamino)propyl]-1H-indazol-3-yl]-1H-pyrrole-2,5-dione] | 0.07 | – | – | –
4 | CN(C)CCCn1nc(C2=C(c3cn(C)c4ccc(Cl)cc34)C(=O)NC2=O)c2ccccc21 [Compound 43, 3-(5-chloro-1-methyl-1H-indol-3-yl)-4-[1-[3-(dimethylamino)propyl]-1H-indazol-3-yl]-1H-pyrrole-2,5-dione] | 0.034 | – | – | –
5 | CN(C)CCCn1nc(C2=C(c3cn(-c4ccc5cc(O)ccc5c4)c4ccccc34)C(=O)NC2=O)c2ccccc21 [Compound 64, 3-[1-[3-(dimethylamino)propyl]-1H-indazol-3-yl]-4-[1-(6-hydroxy-2-naphthalenyl)-1H-indol-3-yl]-1H-pyrrole-2,5-dione] | – | 0.013 | 0.101 | 0.215
6 | CN(C)CCCn1nc(C2=C(c3cn(Cc4ccc5ccccc5n4)c4ccccc34)C(=O)NC2=O)c2ccccc21 [Compound 67, 3-[1-[3-(dimethylamino)propyl]-1H-indazol-3-yl]-4-[1-(2-quinolinylmethyl)-1H-indol-3-yl]-1H-pyrrole-2,5-dione] | – | 0.016 | 1.48 | 0.65
7 | O=C1NC(=O)C(c2nn(CCCN3CCOCC3)c3ccccc23)=C1c1cn(-c2ccc3ccccc3c2)c2ccccc12 [Compound 70, 3-[1-[3-(4-morpholinyl)propyl]-1H-indazol-3-yl]-4-[1-(2-naphthalenyl)-1H-indol-3-yl]-1H-pyrrole-2,5-dione] | – | 0.018 | 0.259 | 0.342
8 | CC(=O)OCCCn1nc(C2=C(c3cn(C)c4ccc(Cl)cc34)C(=O)NC2=O)c2ccccc21 [Compound 76, 3-[1-[3-(acetyloxy)propyl]-1H-indazol-3-yl]-4-(5-chloro-1-methyl-1H-indol-3-yl)-1H-pyrrole-2,5-dione] | 0.085 | – | – | –
9 | O=C1NC(=O)C(c2nn(CCCN3CCCC3)c3ccccc23)=C1c1cn(-c2ccc3ccccc3c2)c2ccccc12 [Compound 85, 3-[1-(2-naphthalenyl)-1H-indol-3-yl]-4-[1-[3-(1-pyrrolidinyl)propyl]-1H-indazol-3-yl]-1H-pyrrole-2,5-dione] | – | 0.044 | 0.477 | 0.511
10 | CCn1nc(C2=C(c3cn(CCCN4CCOCC4)c4ccccc34)C(=O)NC2=O)c2cc(Cl)ccc21 [Compound 86, 3-(5-chloro-1-ethyl-1H-indazol-3-yl)-4-[1-[3-(4-morpholinyl)propyl]-1H-indol-3-yl]-1H-pyrrole-2,5-dione] | 0.13 | – | – | –
11 | CCn1cc(C2=C(c3nn(CCCN(C)C)c4ccccc34)C(=O)NC2=O)c2ccc(Cl)cc21 [Compound 90, 3-(6-chloro-1-ethyl-1H-indol-3-yl)-4-[1-[3-(dimethylamino)propyl]-1H-indazol-3-yl]-1H-pyrrole-2,5-dione] | 0.096 | – | – | –
12 | CCn1cc(C2=C(c3nn(CCCN(C)C)c4ccccc34)C(=O)NC2=O)c2cccc(Cl)c21 [Compound 95, 3-(7-chloro-1-ethyl-1H-indol-3-yl)-4-[1-[3-(dimethylamino)propyl]-1H-indazol-3-yl]-1H-pyrrole-2,5-dione] | 0.06 | – | – | –
13 | CCn1cc(C2=C(c3nn(CCCN(C)C)c4ccccc34)C(=O)NC2=O)c2cc(C#N)ccc21 [Compound 98, 3-[4-[1-[3-(dimethylamino)propyl]-1H-indazol-3-yl]-2,5-dihydro-2,5-dioxo-1H-pyrrol-3-yl]-1-ethyl-1H-indole-5-carbonitrile] | 0.015 | – | – | –

Results, then the compound that gave them:

Row | IC50 [1] [µM] | IC50 [2] [µM] | IC50 [3] [µM] | IC50 [4] [µM] | Compound
14 | – | 0.015 | 0.106 | 0.091 | CN(C)CCCn1nc(C2=C(c3cn(-c4ccccn4)c4ccccc34)C(=O)NC2=O)c2ccccc21 [Compound 31, 3-[1-[3-(dimethylamino)propyl]-1H-indazol-3-yl]-4-[1-(2-pyridinyl)-1H-indol-3-yl]-1H-pyrrole-2,5-dione]
15 | 0.51 | – | – | – | CN(C)CCCn1nc(C2=C(c3cn(-c4ccncc4)c4ccccc34)C(=O)NC2=O)c2ccccc21 [Compound 32, 3-[1-[3-(dimethylamino)propyl]-1H-indazol-3-yl]-4-[1-(4-pyridinyl)-1H-indol-3-yl]-1H-pyrrole-2,5-dione]
16 | – | 0.009 | 0.205 | 0.665 | CN(C)CCCn1nc(C2=C(c3cn(-c4cncnc4)c4ccccc34)C(=O)NC2=O)c2ccccc21 [Compound 34, 3-[1-[3-(dimethylamino)propyl]-1H-indazol-3-yl]-4-[1-(5-pyrimidinyl)-1H-indol-3-yl]-1H-pyrrole-2,5-dione]
17 | – | 0.01 | 0.071 | 0.168 | CN(C)CCCn1nc(C2=C(c3cn(-c4ccccc4)c4ccccc34)C(=O)NC2=O)c2ccccc21 [Compound 45, 3-[1-[3-(dimethylamino)propyl]-1H-indazol-3-yl]-4-(1-phenyl-1H-indol-3-yl)-1H-pyrrole-2,5-dione]
18 | 0.09 | – | – | – | CN(C)CCCn1nc(C2=C(c3cn(-c4ccccc4)c4ccc(Cl)cc34)C(=O)NC2=O)c2ccccc21 [Compound 48, 3-(5-chloro-1-phenyl-1H-indol-3-yl)-4-[1-[3-(dimethylamino)propyl]-1H-indazol-3-yl]-1H-pyrrole-2,5-dione]
19 | – | 0.037 | 0.611 | 0.713 | CN(C)CCCn1nc(C2=C(c3cn(-c4csc5ccccc45)c4ccccc34)C(=O)NC2=O)c2ccccc21 [Compound 60, 3-(1-benzo[b]thien-3-yl-1H-indol-3-yl)-4-[1-[3-(dimethylamino)propyl]-1H-indazol-3-yl]-1H-pyrrole-2,5-dione]
20 | 0.014 | – | – | – | Cn1cc(C2=C(c3nn(CCCO)c4ccccc34)C(=O)NC2=O)c2cc(Cl)ccc21 [Compound 74, 3-(5-chloro-1-methyl-1H-indol-3-yl)-4-[1-(3-hydroxypropyl)-1H-indazol-3-yl]-1H-pyrrole-2,5-dione]
21 | – | 0.057 | 0.358 | 0.206 | O=C1NC(=O)C(c2nn(CCCO)c3ccccc23)=C1c1cn(-c2ccc3ccccc3c2)c2ccccc12 [Compound 84, 3-[1-(3-hydroxypropyl)-1H-indazol-3-yl]-4-[1-(2-naphthalenyl)-1H-indol-3-yl]-1H-pyrrole-2,5-dione]
22 | – | 0.038 | 0.422 | 0.232 | CN(CCO)CCCn1nc(C2=C(c3cn(-c4ccc5ccccc5c4)c4ccccc34)C(=O)NC2=O)c2ccccc21 [Compound 88, 3-[1-[3-[(2-hydroxyethyl)methylamino]propyl]-1H-indazol-3-yl]-4-[1-(2-naphthalenyl)-1H-indol-3-yl]-1H-pyrrole-2,5-dione]
23 | – | 0.019 | 0.08 | 0.134 | CN(C)CCn1nc(C2=C(c3cn(-c4ccc5ccccc5c4)c4ccccc34)C(=O)NC2=O)c2ccccc21 [Compound 101, 3-[1-[2-(dimethylamino)ethyl]-1H-indazol-3-yl]-4-[1-(2-naphthalenyl)-1H-indol-3-yl]-1H-pyrrole-2,5-dione]
24 | 0.21 | – | – | – | O=C1NC(=O)C(c2nn(CCCO)c3ccccc23)=C1c1cn(-c2ccccn2)c2ccccc12 [Compound 102, 3-[1-(3-hydroxypropyl)-1H-indazol-3-yl]-4-[1-(2-pyridinyl)-1H-indol-3-yl]-1H-pyrrole-2,5-dione]
25 | – | 0.02 | 0.189 | 0.161 | CN(C)CCn1nc(C2=C(c3cn(-c4csc5ccccc45)c4ccccc34)C(=O)NC2=O)c2ccccc21 [Compound 103, 3-(1-benzo[b]thien-3-yl-1H-indol-3-yl)-4-[1-[2-(dimethylamino)ethyl]-1H-indazol-3-yl]-1H-pyrrole-2,5-dione]
26 | 0.073 | – | – | – | O=C1NC(=O)C(c2nn(CCCO)c3ccccc23)=C1c1cn(-c2cncc3ccccc23)c2ccccc12 [Compound 105, 3-[1-(3-hydroxypropyl)-1H-indazol-3-yl]-4-[1-(4-isoquinolinyl)-1H-indol-3-yl]-1H-pyrrole-2,5-dione]
27 | – | 0.005 | 0.032 | 0.231 | NCCCn1nc(C2=C(c3cn(-c4cccnc4)c4ccccc34)C(=O)NC2=O)c2ccccc21 [Compound 109, 3-[1-(3-aminopropyl)-1H-indazol-3-yl]-4-[1-(3-pyridinyl)-1H-indol-3-yl]-1H-pyrrole-2,5-dione]
